{
  "source": "patent US20200069592A1",
  "about": "“HSP90 INHIBITOR ORAL FORMULATIONS AND RELATED METHODS” (Samus Therapeutics, Inc., priority 2017, published 2020)",
  "key": {"[1]": {"assay": "Particle size distribution (Cilas 1180) of as-received and jet milled API (Example 8)", "assay_type": "physicochemical", "procedure": "Compound 2 API ‘as-received’ (Lots #2064-118-8, #2064-146-9, and # BPR-WS 1828-194D(2HCl)—B1-19) were analyzed for PSD on a Cilas 1180 particle size analyzer. Subsequently jet milled API batches B # L0441-20-JM51mmP1, B # L0441-20-JM51mmP2, B # L0441-20-JM51mmP3, and B # L0441-84-JM146mmP1 were also analyzed for PSD Approximately 50 mg Compound 2-2HCl was dispersed into 40 mL 0.2% (w/w) span 80 in n-hexanes (dispersant) and allowed to mix for 60 minutes. API was kept suspended in dispersant via stirring and sonication during test.\nA jet milling study was performed on a batch of Compound 2 2HCl with jet mill Fluid Energy Asset #00170 outfitted with a 51 mm collection loop. Batches B # L0441-29-JM51mmP1, B # L0441-29-JM51mmP2, and B # L0441-29-JM51mmP3 were created from ˜10 g of Compound 2 lot # BPR-WS1828-194D(2HCl)-B1-19 subjected to 3 passes. Jet mill settings for grinder nozzle and pusher nozzle as follows: Pass 1 grinder nozzle=60 psi & pusher nozzle=80 psi, Pass 2 and 3 grinder nozzle=50 psi & pusher nozzle=70 psi.\nAfter successfully jet milling on the R&D scale, B # L0441-84-JM146mmP1 was created from Compound 2-2HCl lot # BPR-17-87-B1-21d which was processed with a single pass to confirm GMP scale up conditions in the R&D laboratory by passing 85 g through the GMP jet mill Jet-O-Mizer Asset #01 16 Model 0101 outfitted with 146 mm collection loop using a standard nylon 4×48-inch collection sock inside a PTFE 4×48-inch sock to minimize fines loss. The pressure settings for the grinder and pusher nozzle were: Grinder nozzle 60 psi, Pusher nozzle 70 psi."}, "[2]": {"conditions": "female, Sprague Dawley, rat, in vivo, po", "description": "(§1) The animals used in this study were female Sprague Dawley Rats physiologically normal. At the time of receipt, mice were 200-225 g in weight. […] Ninety-four total animals were observed thereafter. The parenteral administration is performed by tail vein injection.\n(§2) Compound 2 was provided in free base form and stored at −20° C., protected from light. Compound 2 was formulated in dosage form immediately prior to use. For oral administration of Compound 2 in ORA-Plus® drinking solution, Compound 2 was suspended in drinking solution ORA-Plus® (Perrigo; Minneapolis, Minn.). First, a mortar and pestle were used to smooth out the Compound 2 powder, then a small amount of ORA-Plus® was added, and next, the mixture was triturated to a thick, smooth paste. The remainder of the ORA-Plus® was added by geometric dilution. The Compound 2 free base and ORA-Plus® mixture was dispensed in a tight, light resistant amber bottle with appropriate labeling. This mixture was shaken well before using, protected from light and kept refrigerated if dosing was delayed. For oral administration of Compound 2 in citric acid buffer with Captisol®, Compound 2 free base powder was dissolved or suspended into 30% Captisol® (Cydex Pharmaceuticals; Lawrence, Kans.) in 60 mM citrate buffer (pH˜4.2) (citric acid and sodium citrate dehydrate (Sigma-Aldrich; St. Louis Mo.)) in sterile water) to each group's working concentration. […] A magnetic stir-bar was used to mix dosing solution, followed by sonication. For intravenous administration, Compound 2 free base powder was dissolved into 15% Captisol® in 5 mM citrate buffer (pH˜4.2) to each group's working concentration. A magnetic stirbar was used to mix dosing solution, followed by sonication. IV dosing solution of Compound 2 free base was filtered with a 0.2 m PVDF filter (Pall Life Sciences; Port Washington, N.Y.) prior to administration.\n(§3) Dose levels of Compound 1 were based on the free base, not the salt.\n(§4) Animals were randomized using random equilibration of body weights on Day 1 into one of 19 study groups, as shown in Table 23 (Groups 1-19), with 5 animals in each group, except for the 4 animals in Group 19. Body weights were collected Days 1, 2, 3, and/or 4 to accommodate data collection of staggered groups. Gross observations of body weight were noted during the course of the study."}, "[3]": {"assay": "Plasma pharmacokinetics after single PO or IV administration (Example 5), LC-MS/MS", "conditions": "female, Sprague-Dawley, rat, plasma, dosed as 2HCl; for AUC(0-t): AUC0-last (hr*ng/mL) Mean ± StdDev; for Cmax: Cmax (ng/mL) Mean ± StdDev; for Tmax: Tmax (hr) Mean ± StdDev", "description": "as §1, §2, §3, §4"}, "[4]": {"conditions": "after jet milling, 51 mm collection loop"}, "[5]": {"conditions": "iv, 12 mg/kg, Group 18: 12 mg/kg IV, 0.9% Saline"}, "[6]": {"conditions": "iv, 24 mg/kg, Group 19: 24 mg/kg IV, 0.9% Saline"}, "[7]": {"conditions": "po, 24 mg/kg, Group 11: 24 mg/kg PO, ORA-Plus, single dose"}, "[8]": {"conditions": "po, 36 mg/kg, Group 12: 36 mg/kg PO, ORA-Plus"}, "[9]": {"conditions": "po, 36 mg/kg, Group 15: 36 mg/kg PO, 0.5% Methylcellulose in water"}, "[10]": {"conditions": "po, 48 mg/kg, Group 13: 48 mg/kg PO, ORA-Plus"}, "[11]": {"conditions": "po, 48 mg/kg, Group 16: 48 mg/kg PO, 0.5% Methylcellulose in water"}, "[12]": {"conditions": "po, 60 mg/kg, Group 14: 60 mg/kg PO, ORA-Plus"}, "[13]": {"conditions": "po, 60 mg/kg, Group 17: 60 mg/kg PO, 0.5% Methylcellulose in water"}},
  "note": "Read-outs that look alike come from different tables or passages of the source.",
  "data": [
    {"smiles": "CC(C)(C)CNCCn1c(Sc2cc3c(cc2I)OCO3)nc2c(N)ncnc21", "note": "[B #132-L0441-20-JM51mmP3]", "values": [
      {"measurement": "Particle size d10", "setting": "[1]; [4]", "result": 2.0, "unit": "μm"},
      {"measurement": "Particle size d50", "setting": "[1]; [4]", "result": 4.8, "unit": "μm"},
      {"measurement": "Particle size d90", "setting": "[1]; [4]", "result": 10.1, "unit": "μm"},
      {"measurement": "Particle size span", "setting": "[1]; [4]", "result": 8.1, "unit": "μm"}
    ]},
    {"smiles": "CC(C)(C)CNCCn1c(Sc2cc3c(cc2I)OCO3)nc2c(N)ncnc21", "note": "[B #132-L0441-20-JM51mmP1]", "values": [
      {"measurement": "Particle size d10", "setting": "[1]; [4]", "result": 3.1, "unit": "μm"},
      {"measurement": "Particle size d50", "setting": "[1]; [4]", "result": 7.9, "unit": "μm"},
      {"measurement": "Particle size d90", "setting": "[1]; [4]", "result": 17.3, "unit": "μm"},
      {"measurement": "Particle size span", "setting": "[1]; [4]", "result": 14.2, "unit": "μm"},
      {"measurement": "Particle size d90", "setting": "[1]; as quoted for the batches used in Example 9, listed as B # L0441-20-JM51mmP1", "result": 17, "unit": "um"}
    ]},
    {"smiles": "CC(C)NCCCn1c(Sc2cc3c(cc2I)OCO3)nc2c(N)ncnc21", "note": "[Compound 1]", "values": [
      {"measurement": "% AUC0-last ORA vs methylcellulose Mean ± StdDev", "setting": "[2]; 36 mg/kg", "result": "119.11 ± 45.91", "unit": "%"},
      {"measurement": "% Cmax ORA vs methylcellulose Mean ± StdDev", "setting": "[2]; 36 mg/kg", "result": "118.75 ± 64.56", "unit": "%"},
      {"measurement": "% AUC0-last ORA vs methylcellulose Mean ± StdDev", "setting": "[2]; 48 mg/kg", "result": "111.81 ± 69.18", "unit": "%"},
      {"measurement": "% Cmax ORA vs methylcellulose Mean ± StdDev", "setting": "[2]; 48 mg/kg", "result": "89.30 ± 37.98", "unit": "%"},
      {"measurement": "% AUC0-last ORA vs methylcellulose Mean ± StdDev", "setting": "[2]; 60 mg/kg", "result": "70.33 ± 23.05", "unit": "%"},
      {"measurement": "% Cmax ORA vs methylcellulose Mean ± StdDev", "setting": "[2]; 60 mg/kg", "result": "66.16 ± 17.44", "unit": "%"},
      {"measurement": "AUC(0-t)", "setting": "[3]; [5]", "result": "2470 ± 573", "unit": "ng·h/mL"},
      {"measurement": "Cmax", "setting": "[3]; [5]", "result": "1280 ± 325", "unit": "ng/mL"},
      {"measurement": "Tmax", "setting": "[3]; [5]", "result": 0.25, "unit": "h"},
      {"measurement": "AUC(0-t)", "setting": "[3]; [6]", "result": "5500 ± 2800", "unit": "ng·h/mL"},
      {"measurement": "Cmax", "setting": "[3]; [6]", "result": "2080 ± 79.3", "unit": "ng/mL"},
      {"measurement": "Tmax", "setting": "[3]; [6]", "result": "0.31 ± 0.13", "unit": "h"},
      {"measurement": "AUC(0-t)", "setting": "[3]; [7]", "result": "2700 ± 462", "unit": "ng·h/mL"},
      {"measurement": "Cmax", "setting": "[3]; [7]", "result": "807 ± 214", "unit": "ng/mL"},
      {"measurement": "Tmax", "setting": "[3]; [7]", "result": 2, "unit": "h"},
      {"measurement": "AUC(0-t)", "setting": "[3]; [8]", "result": "3220 ± 870", "unit": "ng·h/mL"},
      {"measurement": "AUC(0-t)", "setting": "[3]; [9]", "result": "2850 ± 919", "unit": "ng·h/mL"},
      {"measurement": "Cmax", "setting": "[3]; [8]", "result": "853 ± 193", "unit": "ng/mL"},
      {"measurement": "Cmax", "setting": "[3]; [9]", "result": "812 ± 270", "unit": "ng/mL"},
      {"measurement": "Tmax", "setting": "[3]; [8]", "result": 2, "unit": "h"},
      {"measurement": "Tmax", "setting": "[3]; [9]", "result": "2.2 ± 1.1", "unit": "h"},
      {"measurement": "AUC(0-t)", "setting": "[3]; [10]", "result": "6500 ± 2030", "unit": "ng·h/mL"},
      {"measurement": "AUC(0-t)", "setting": "[3]; [11]", "result": "6500 ± 1690", "unit": "ng·h/mL"},
      {"measurement": "Cmax", "setting": "[3]; [10]", "result": "1420 ± 470", "unit": "ng/mL"},
      {"measurement": "Cmax", "setting": "[3]; [11]", "result": "1650 ± 271", "unit": "ng/mL"},
      {"measurement": "Tmax", "setting": "[3]; [10]", "result": "2.4 ± 0.89", "unit": "h"},
      {"measurement": "Tmax", "setting": "[3]; [11]", "result": "1.4 ± 0.55", "unit": "h"},
      {"measurement": "AUC(0-t)", "setting": "[3]; [12]", "result": "4870 ± 1420", "unit": "ng·h/mL"},
      {"measurement": "AUC(0-t)", "setting": "[3]; [13]", "result": "7320 ± 2440", "unit": "ng·h/mL"},
      {"measurement": "Cmax", "setting": "[3]; [12]", "result": "1120 ± 175", "unit": "ng/mL"},
      {"measurement": "Cmax", "setting": "[3]; [13]", "result": "1760 ± 458", "unit": "ng/mL"},
      {"measurement": "Tmax", "setting": "[3]; [12]", "result": "3 ± 2", "unit": "h"},
      {"measurement": "Tmax", "setting": "[3]; [13]", "result": "1.5 ± 0.71", "unit": "h"}
    ]},
    {"smiles": "CC(C)(C)CNCCn1c(Sc2cc3c(cc2I)OCO3)nc2c(N)ncnc21", "note": "[B #132-L0441-20-JM51mmP2]", "values": [
      {"measurement": "Particle size d10", "setting": "[1]; [4]", "result": 2.3, "unit": "μm"},
      {"measurement": "Particle size d50", "setting": "[1]; [4]", "result": 5.6, "unit": "μm"},
      {"measurement": "Particle size d90", "setting": "[1]; [4]", "result": 11.7, "unit": "μm"},
      {"measurement": "Particle size span", "setting": "[1]; [4]", "result": 9.4, "unit": "μm"},
      {"measurement": "Particle size d90", "setting": "[1]; as quoted for the batches used in Example 9, listed as B # L0441-20-JM51mmP2", "result": 11, "unit": "um"}
    ]}
  ]
}
